The target in assay [1] is T1, HCV polymerase (NS5B) type 1a (Hepatitis C virus genotype 1a, UniProt P26664).
T1 construct: made in house; host or cells: Escherichia coli (by the 'similar method' of the 1b enzyme)
The assay can be described thus: Assay of enzyme (HCV polymerase) inhibitory activity, type 1a enzyme. Conditions: HCV polymerase inhibitory activity IC50, 1a, type 1a enzyme. The assay is classed as biochemical, HCV type 1a (cloned from the blood of patients). A digest of the protocol:
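IC50 values derive from radioactivity of newly synthesized RNA with versus without test compound. The enzyme was C-terminally truncated type 1a NS5B, 1.5 μg/ml, run 60 min at 25° C with 3H-UTP-labelled nucleotides.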

The target of assay [2] is T2, HCV polymerase (NS5B) type 1b (Hepatitis C virus genotype 1b, UniProt P26663).
T2 construct: a region encoding NS5B (J Virol 1991 March, 65(3), 1105-13, 544 amino acids after deletion of 47 amino acids on the C-terminal); 6xHis (C); made in house; host or cells: Escherichia coli
The assay can be described thus: Assay of enzyme (HCV polymerase) inhibitory activity, type 1b enzyme. The assay is classed as biochemical, HCV BK strain (type 1b). Conditions: HCV polymerase inhibitory activity IC50, 1b, type 1b enzyme. In outline: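 Polymerase activity was followed as radiolabelled UTP incorporation by E. coli-expressed, His-tagged NS5B of HCV type 1b lacking its last 47 residues. Conditions: 2 μM UTP, 50 μM other NTPs, Mg2+ buffer at pH 7.5, 25 °C for 60 min. Inhibition relative to compound-free reactions gave IC50.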

Where only a bound is given, the exact number is not on record here.

By IC50 is commonly meant the concentration that inhibits the measured activity by half. High values mean weaker potency, low ones greater potency. Take `O=C(NCc1ccc(OC(F)(F)F)cc1)[C@H]1CN(c2nc3ncncc3s2)CCN1S(=O)(=O)c1ccc(OC(F)(F)F)cc1` [Example 801, (R)-4-thiazolo[4,5-d]pyrimidin-2-yl-1-(4-trifluoromethoxy-benzenesulfonyl)-piperazine-2-carboxylic acid 4-trifluoromethoxy-benzylamide]: the IC50 in assay [1] and in assay [2] was < 100 nM throughout.
As to `O=C(NCc1ccc(OC(F)(F)F)cc1)[C@H]1CN(c2nc3nc(Cl)ncc3s2)CCN1S(=O)(=O)c1ccc(OC(F)(F)F)cc1` [Example 802, (R)-4-(5-chloro-thiazolo[4,5-d]pyrimidin-2-yl)-1-(4-trifluoromethoxy-benzenesulfonyl)-piperazine-2-carboxylic acid 4-trifluoromethoxy-benzylamide], the half-maximal inhibitory concentration (IC50) in assay [1] and in assay [2] was < 100 nM throughout.
Consider `O=C(NCc1ccc(OC(F)(F)F)cc1)[C@H]1CN(c2nc3c(=O)[nH][nH]c(=O)c3s2)CCN1S(=O)(=O)c1ccc(OC(F)(F)F)cc1` [Example 803, (R)-4-(4,7-dioxo-4,5,6,7-tetrahydro-thiazolo[4,5-d]pyridazin-2-yl)-1-(4-trifluoromethoxy-benzenesulfonyl)-piperazine-2-carboxylic acid 4-trifluoromethoxy-benzylamide], for which the IC50 in assay [1] and in assay [2] was < 100 nM each time.
As to `O=C(NCC12CC3CC(CC(C3)C1)C2)[C@H]1CN(c2cnc3cncnc3n2)CCN1S(=O)(=O)c1ccc(OC(F)(F)F)cc1` [Example 804, (R)-4-pteridin-7-yl-1-(4-trifluoromethoxy-benzenesulfonyl)-piperazine-2-carboxylic acid (adamantan-1-ylmethyl)-amide], the half-inhibitory concentration (IC50) in assay [1] and in assay [2] was > 1000 nM each time.
`O=C(NCc1ccc(OC(F)(F)F)cc1)[C@H]1CN(c2nc3cn[nH]c(=O)c3s2)CCN1S(=O)(=O)c1ccc(OC(F)(F)F)cc1` [Example 805, (R)-4-(7-oxo-6,7-dihydrothiazolo[4,5-d]pyridazin-2-yl)-1-(4-trifluoromethoxy-benzenesulfonyl)-piperazine-2-carboxylic acid 4-trifluoromethoxy-benzylamide]: the concentration for half-maximal inhibition (IC50) in assay [1] and in assay [2] was < 100 nM each time.
Turning to `O=C(O)c1cncc2ncc(N3CCN(S(=O)(=O)c4ccc(OC(F)(F)F)cc4)[C@@H](C(=O)NCc4ccc(OC(F)(F)F)cc4)C3)nc12` [Example 806, 2-[(R)-4-(4-trifluoromethoxy-benzenesulfonyl)-3-(4-trifluoromethoxy-benzylcarbamoyl)-piperazin-1-yl]-pyrido[3,4-b]pyrazine-8-carboxylic acid], the IC50 in assay [1] and in assay [2] was < 100 nM throughout.
In the case of `NC(=O)c1cncc2ncc(N3CCN(S(=O)(=O)c4ccc(OC(F)(F)F)cc4)[C@@H](C(=O)NCc4ccc(OC(F)(F)F)cc4)C3)nc12` [Example 807, 2-[(R)-4-(4-trifluoromethoxy-benzenesulfonyl)-3-(4-trifluoromethoxy-benzylcarbamoyl)-piperazin-1-yl]-pyrido[3,4-b]pyrazine-8-carboxylic acid amide], the IC50 in assay [1] and in assay [2] was < 100 nM each time.
For the compound `O=C(O)CCc1cncc2ncc(N3CCN(S(=O)(=O)c4ccc(OC(F)(F)F)cc4)[C@@H](C(=O)NCc4ccc(OC(F)(F)F)cc4)C3)nc12` [Example 808, 3-{2-[(R)-4-(4-trifluoromethoxy-benzenesulfonyl)-3-(4-trifluoromethoxy-benzylcarbamoyl)-piperazin-1-yl]-pyrido[3,4-b]pyrazin-8-yl}-propionic acid], the IC50 in assay [1] and in assay [2] was < 100 nM throughout.
Turning to `Cc1nc(N2CCN(S(=O)(=O)c3ccc(OC(F)(F)F)cc3)[C@@H](C(=O)NCc3ccc(OC(F)(F)F)cc3)C2)cnc1C(=O)O` [Example 809, (R)-6′-methyl-4-(4-trifluoromethoxy-benzenesulfonyl)-3-(4-trifluoromethoxy-benzylcarbamoyl)-3,4,5,6-tetrahydro-2H-[1,2′]bipyrazinyl-5′-carboxylic acid], the IC50 in assay [1] and in assay [2] was < 100 nM each time.
In the case of `NC(=O)CCc1cncc2ncc(N3CCN(S(=O)(=O)c4ccc(OC(F)(F)F)cc4)[C@@H](C(=O)NCc4ccc(OC(F)(F)F)cc4)C3)nc12` [Example 810, (R)-4-[8-(2-carbamoyl-ethyl)-pyrido[3,4-b]pyrazin-2-yl]-1-(4-trifluoromethoxy-benzenesulfonyl)-piperazine-2-carboxylic acid 4-trifluoromethoxy-benzylamide], the IC50 in assay [1] and in assay [2] was < 100 nM each time.
Regarding `O=C(NCCCc1ccccc1)[C@H]1CN(c2cnc3cncnc3n2)CCN1S(=O)(=O)c1ccc(OC(F)(F)F)cc1` [Example 811, (R)-4-pteridin-7-yl-1-(4-trifluoromethoxy-benzenesulfonyl)-piperazine-2-carboxylic acid (3-phenyl-propyl)-amide], the IC50 in assay [1] and in assay [2] was 100 to 1000 nM each time.
Turning to `CCCc1ccc(CNC(=O)[C@H]2CN(c3nc4cn[nH]c(=O)c4s3)CCN2S(=O)(=O)c2ccc(CC)cc2)cc1` [Example 812, (R)-1-(4-ethyl-benzenesulfonyl)-4-(7-oxo-6,7-dihydro-thiazolo[4,5-d]pyridazin-2-yl)-piperazine-2-carboxylic acid 4-propyl-benzylamide], the 50% inhibitory concentration (IC50) in assay [1] and in assay [2] was < 100 nM throughout.
On to `CCCc1ccc(CNC(=O)[C@H]2CN(c3cnc4cncc(Br)c4n3)CCN2S(=O)(=O)c2ccc(CC)cc2)cc1` [Example 813, (R)-4-(8-bromo-pyrido[3,4-b]pyrazin-2-yl)-1-(4-ethyl-benzenesulfonyl)-piperazine-2-carboxylic acid 4-propyl-benzylamide], for which the concentration for half-maximal inhibition (IC50) in assay [1] and in assay [2] was < 100 nM each time.
As to `CCCc1ccc(CNC(=O)[C@H]2CN(c3cnc4c(C(=O)O)cccc4n3)CCN2S(=O)(=O)c2ccc(CC)cc2)cc1` [Example 814, 2-[(R)-4-(4-ethyl-benzenesulfonyl)-3-(4-propyl-benzylcarbamoyl)-piperazin-1-yl]-quinoxaline-5-carboxylic acid], the concentration for half-maximal inhibition (IC50) in assay [1] and in assay [2] was < 100 nM in each case.
`CCCc1ccc(CNC(=O)[C@H]2CN(c3cnc4cncc(C(=O)O)c4n3)CCN2S(=O)(=O)c2ccc(CC)cc2)cc1` [Example 815, 2-[(R)-4-(4-ethyl-benzenesulfonyl)-3-(4-propyl-benzylcarbamoyl)-piperazin-1-yl]-pyrido[3,4-b]pyrazine-8-carboxylic acid]: the IC50 in assay [1] and in assay [2] was < 100 nM each time.
In the case of `CCCc1ccc(CNC(=O)[C@H]2CN(c3cnc4cccc(C(=O)O)c4n3)CCN2S(=O)(=O)c2ccc(CC)cc2)cc1` [Example 816, 3-[(R)-4-(4-ethyl-benzenesulfonyl)-3-(4-propyl-benzylcarbamoyl)-piperazin-1-yl]-quinoxaline-5-carboxylic acid], the IC50 in assay [1] and in assay [2] was < 100 nM throughout.
On to `CCCc1ccc(CNC(=O)[C@H]2CN(c3cnc4c(C(=O)O)cccc4n3)CCN2S(=O)(=O)c2ccc(OC(F)(F)F)cc2)cc1` [Example 817, 2-[(R)-3-(4-propyl-benzylcarbamoyl)-4-(4-trifluoromethoxy-benzenesulfonyl)-piperazin-1-yl]-quinoxaline-5-carboxylic acid], for which the 50% inhibitory concentration (IC50) in assay [1] and in assay [2] was < 100 nM each time.
On to `CCCc1ccc(CNC(=O)[C@H]2CN(c3nc4c(C(=O)O)cccc4s3)CCN2S(=O)(=O)c2ccc(CC)cc2)cc1` [Example 818, 2-[(R)-4-(4-ethyl-benzenesulfonyl)-3-(4-propyl-benzylcarbamoyl)-piperazin-1-yl]-benzothiazole-4-carboxylic acid], for which the IC50 in assay [1] and in assay [2] was < 100 nM in each case.
On to `CCCc1ccc(CNC(=O)[C@H]2CN(c3nc4cn[nH]c(=O)c4s3)CCN2S(=O)(=O)c2ccc(OC(F)(F)F)cc2)cc1` [Example 819, (R)-4-(7-oxo-6,7-dihydro-thiazolo[4,5-d]pyridazin-2-yl)-1-(4-trifluoromethoxy-benzenesulfonyl)-piperazine-2-carboxylic acid 4-propyl-benzylamide], for which the IC50 in assay [1] and in assay [2] was < 100 nM throughout.
For `CCCc1ccc(CNC(=O)[C@H]2CN(c3nc4cn[nH]c(=O)c4s3)CCN2S(=O)(=O)c2ccc(C(F)(F)F)cc2)cc1` [Example 820, (R)-4-(7-oxo-6,7-dihydro-thiazolo[4,5-d]pyridazin-2-yl)-1-(4-trifluoromethyl-benzenesulfonyl)-piperazine-2-carboxylic acid 4-propyl-benzylamide], the 50% inhibitory concentration (IC50) in assay [1] and in assay [2] was < 100 nM throughout.
In the case of `CCC(F)(F)c1ccc(CNC(=O)[C@H]2CN(c3nc4cn[nH]c(=O)c4s3)CCN2S(=O)(=O)c2ccc(OC(F)(F)F)cc2)cc1` [Example 821, (R)-4-(7-oxo-6,7-dihydro-thiazolo[4,5-d]pyridazin-2-yl)-1-(4-trifluoromethoxy-benzenesulfonyl)-piperazine-2-carboxylic acid 4-(1,1-difluoro-propyl)-benzylamide], the IC50 in assay [1] and in assay [2] was < 100 nM each time.

The record behind these values is patent publication US8017612B2, “Piperazine compound and use thereof as a HCV polymerase inhibitor” (priority 2006, dated 2011).
